Experimental data published in the NIST ThermoML archive (doi:10.1021/je060271a).
Values joined by “and” are separate entries in the source; they are usually repeats but may differ in a detail not shown here. Identical values can stand only once. Numbers after ± are expanded uncertainties.

Conditions: Liquid, Vibrating tube method

CCCCCC(=O)OCC(COC(=O)CCCCC)(COC(=O)CCCCC)COC(=O)CCCCC [pentaerythritol tetrahexanoate]
mass density (323.17 K, 28058 kPa): 990.9 ± 1.2 kg/m3 | mass density (323.17 K, 28086 kPa): 991 ± 1.2 kg/m3 | mass density (323.17 K, 28114 kPa): 991 ± 1.2 kg/m3 | mass density (323.17 K, 28143 kPa): 991 ± 1.2 kg/m3 | mass density (323.17 K, 28171 kPa): 991 ± 1.2 kg/m3 | mass density (323.17 K, 28198 kPa): 991 ± 1.2 kg/m3 | mass density (323.17 K, 28227 kPa): 991 ± 1.2 kg/m3 | mass density (323.17 K, 28250 kPa): 991 ± 1.2 kg/m3 | mass density (323.17 K, 28280 kPa): 991.1 ± 1.2 kg/m3 | mass density (323.17 K, 32281 kPa): 993.5 ± 1.2 kg/m3 | mass density (323.17 K, 32302 kPa): 993.5 ± 1.2 kg/m3 | mass density (323.17 K, 32323 kPa): 993.5 ± 1.2 kg/m3 | mass density (323.17 K, 32340 kPa): 993.5 ± 1.2 kg/m3 | mass density (323.17 K, 32354 kPa): 993.5 ± 1.2 kg/m3 | mass density (323.18 K, 15635 kPa): 983.3 ± 1.2 kg/m3 | mass density (323.18 K, 15665 kPa): 983.3 ± 1.2 kg/m3 | mass density (323.18 K, 15689 kPa): 983.4 ± 1.2 kg/m3 | mass density (323.18 K, 15719 kPa): 983.4 ± 1.2 kg/m3 | mass density (323.18 K, 15747 kPa): 983.4 ± 1.2 kg/m3 | mass density (323.18 K, 15770 kPa): 983.3 ± 1.2 kg/m3 | mass density (323.18 K, 15797 kPa): 983.4 ± 1.2 kg/m3 | mass density (323.18 K, 15822 kPa): 983.4 ± 1.2 kg/m3 | mass density (323.18 K, 16186 kPa): 983.7 ± 1.2 kg/m3 | mass density (323.18 K, 16212 kPa): 983.6 ± 1.2 kg/m3 | mass density (323.18 K, 16234 kPa): 983.7 ± 1.2 kg/m3 | mass density (323.18 K, 16261 kPa): 983.7 ± 1.2 kg/m3 | mass density (323.18 K, 16283 kPa): 983.8 ± 1.2 kg/m3 | mass density (323.18 K, 25706 kPa): 989.7 ± 1.2 kg/m3 | mass density (343.14 K, 219.9 kPa): 957.2 ± 1.2 kg/m3 | mass density (343.14 K, 220 kPa): 957.3 ± 1.2 kg/m3 | mass density (343.14 K, 220.3 kPa): 957.1 ± 1.2 kg/m3 and 957.2 ± 1.2 kg/m3 | mass density (343.14 K, 223.6 kPa): 957.3 ± 1.2 kg/m3 | mass density (343.14 K, 348.7 kPa): 957.3 ± 1.2 kg/m3 | mass density (343.14 K, 348.9 kPa): 957.2 ± 1.2 kg/m3 | mass density (343.14 K, 349 kPa): 957.3 ± 1.2 kg/m3 | mass density (343.14 K, 349.6 kPa): 957.4 ± 1.2 kg/m3 | mass density (343.14 K, 350.2 kPa): 957.3 ± 1.2 kg/m3 | mass density (343.14 K, 350.4 kPa): 957.2 ± 1.2 kg/m3 | mass density (343.14 K, 350.6 kPa): 957.3 ± 1.2 kg/m3 | mass density (343.14 K, 351.1 kPa): 957.3 ± 1.2 kg/m3 | mass density (343.14 K, 351.3 kPa): 957.3 ± 1.2 kg/m3 | mass density (343.14 K, 387.3 kPa): 957.4 ± 1.2 kg/m3 | mass density (343.14 K, 387.4 kPa): 957.2 ± 1.2 kg/m3 | mass density (343.14 K, 388.3 kPa): 957.4 ± 1.2 kg/m3 and 957.5 ± 1.2 kg/m3 | mass density (343.14 K, 388.5 kPa): 957.4 ± 1.2 kg/m3 | mass density (343.14 K, 388.8 kPa): 957.5 ± 1.2 kg/m3 | mass density (343.14 K, 389.7 kPa): 957.3 ± 1.2 kg/m3 | mass density (343.14 K, 390.2 kPa): 957.5 ± 1.2 kg/m3 | mass density (343.14 K, 754.9 kPa): 957.7 ± 1.2 kg/m3 | mass density (343.14 K, 762.4 kPa): 957.6 ± 1.2 kg/m3 | mass density (343.14 K, 769.9 kPa): 957.7 ± 1.2 kg/m3 | mass density (343.14 K, 778.4 kPa): 957.6 ± 1.2 kg/m3 | mass density (343.14 K, 925.3 kPa): 957.8 ± 1.2 kg/m3 | mass density (343.14 K, 935.1 kPa): 957.8 ± 1.2 kg/m3 | mass density (343.14 K, 947.2 kPa): 957.8 ± 1.2 kg/m3 | mass density (343.14 K, 956.9 kPa): 957.8 ± 1.2 kg/m3 | mass density (343.14 K, 1145.7 kPa): 958 ± 1.2 kg/m3 | mass density (343.14 K, 1156.5 kPa): 958 ± 1.2 kg/m3 | mass density (343.14 K, 1168 kPa): 958 ± 1.2 kg/m3 | mass density (343.14 K, 1181.7 kPa): 958 ± 1.2 kg/m3 | mass density (343.14 K, 1193 kPa): 958 ± 1.2 kg/m3 | mass density (343.14 K, 1206.5 kPa): 958 ± 1.2 kg/m3 | mass density (343.14 K, 1218.3 kPa): 958 ± 1.2 kg/m3 | mass density (343.14 K, 1230.1 kPa): 958.1 ± 1.2 kg/m3 | mass density (343.14 K, 1242.1 kPa): 958.1 ± 1.2 kg/m3 | mass density (343.14 K, 1256.4 kPa): 958.1 ± 1.2 kg/m3 | mass density (343.14 K, 1268.3 kPa): 958 ± 1.2 kg/m3 | mass density (343.14 K, 2111 kPa): 958.7 ± 1.2 kg/m3 | mass density (343.14 K, 2133.5 kPa): 958.7 ± 1.2 kg/m3 | mass density (343.14 K, 2152.4 kPa): 958.7 ± 1.2 kg/m3 | mass density (343.14 K, 2172.4 kPa): 958.8 ± 1.2 kg/m3 | mass density (343.14 K, 2192.8 kPa): 958.8 ± 1.2 kg/m3 | mass density (343.14 K, 2212.6 kPa): 958.8 ± 1.2 kg/m3 | mass density (343.14 K, 2232.6 kPa): 958.8 ± 1.2 kg/m3 | mass density (343.14 K, 2256.5 kPa): 958.8 ± 1.2 kg/m3 | mass density (343.14 K, 2276.6 kPa): 958.9 ± 1.2 kg/m3 | mass density (343.14 K, 2301.1 kPa): 958.8 ± 1.2 kg/m3 | mass density (343.14 K, 2322.3 kPa): 958.9 ± 1.2 kg/m3 | mass density (343.14 K, 2342.9 kPa): 958.8 ± 1.2 kg/m3 | mass density (343.14 K, 2498.5 kPa): 959.1 ± 1.2 kg/m3 | mass density (343.14 K, 2520.2 kPa): 958.9 ± 1.2 kg/m3 | mass density (343.14 K, 2541.5 kPa): 959.1 ± 1.2 kg/m3 | mass density (343.14 K, 2567.9 kPa): 959 ± 1.2 kg/m3 | mass density (343.14 K, 2590.1 kPa): 959.1 ± 1.2 kg/m3 | mass density (343.14 K, 2612.1 kPa): 959 ± 1.2 kg/m3 | mass density (343.14 K, 2638.5 kPa): 959.1 ± 1.2 kg/m3 | mass density (343.14 K, 2660.7 kPa): 959.1 ± 1.2 kg/m3 | mass density (343.14 K, 2683.4 kPa): 959.2 ± 1.2 kg/m3 | mass density (343.14 K, 6196.6 kPa): 961.7 ± 1.2 kg/m3 | mass density (343.14 K, 6236.7 kPa): 961.9 ± 1.2 kg/m3 | mass density (343.14 K, 6269.8 kPa): 961.8 ± 1.2 kg/m3 | mass density (343.14 K, 6638.6 kPa): 962.2 ± 1.2 kg/m3 | mass density (343.14 K, 6667.6 kPa): 962.1 ± 1.2 kg/m3 | mass density (343.14 K, 6695.6 kPa): 962.2 ± 1.2 kg/m3 | mass density (343.14 K, 6726.9 kPa): 962.2 ± 1.2 kg/m3 | mass density (343.14 K, 7550.4 kPa): 962.9 ± 1.2 kg/m3 | mass density (343.14 K, 7576.5 kPa): 962.8 ± 1.2 kg/m3 | mass density (343.14 K, 7602.9 kPa): 962.8 ± 1.2 kg/m3 | mass density (343.14 K, 7633.5 kPa): 962.9 ± 1.2 kg/m3 | mass density (343.14 K, 7659 kPa): 962.9 ± 1.2 kg/m3 | mass density (343.14 K, 7685.3 kPa): 963 ± 1.2 kg/m3 | mass density (343.14 K, 7716.2 kPa): 962.9 ± 1.2 kg/m3 | mass density (343.14 K, 7742 kPa): 963 ± 1.2 kg/m3 | mass density (343.14 K, 8529.9 kPa): 963.5 ± 1.2 kg/m3 | mass density (343.14 K, 8557.5 kPa): 963.5 ± 1.2 kg/m3 | mass density (343.14 K, 8590 kPa): 963.6 ± 1.2 kg/m3 | mass density (343.14 K, 8617.8 kPa): 963.7 ± 1.2 kg/m3 | mass density (343.14 K, 8680.1 kPa): 963.6 ± 1.2 kg/m3 | mass density (343.14 K, 8708.7 kPa): 963.8 ± 1.2 kg/m3 | mass density (343.14 K, 11319 kPa): 965.5 ± 1.2 kg/m3 | mass density (343.14 K, 11356 kPa): 965.5 ± 1.2 kg/m3 | mass density (343.14 K, 11392 kPa): 965.6 ± 1.2 kg/m3 | mass density (343.14 K, 11435 kPa): 965.6 ± 1.2 kg/m3 | mass density (343.14 K, 11471 kPa): 965.7 ± 1.2 kg/m3 | mass density (343.14 K, 11507 kPa): 965.8 ± 1.2 kg/m3 | mass density (343.14 K, 11550 kPa): 965.7 ± 1.2 kg/m3 | mass density (343.14 K, 11586 kPa): 965.8 ± 1.2 kg/m3 | mass density (343.14 K, 11622 kPa): 965.8 ± 1.2 kg/m3 | mass density (343.14 K, 11664 kPa): 966 ± 1.2 kg/m3 | mass density (343.14 K, 12063 kPa): 966.2 ± 1.2 kg/m3 | mass density (343.14 K, 12100 kPa): 966.1 ± 1.2 kg/m3 | mass density (343.14 K, 12131 kPa): 966.2 ± 1.2 kg/m3 | mass density (343.14 K, 12213 kPa): 966.1 ± 1.2 kg/m3 | mass density (343.14 K, 17659 kPa): 969.9 ± 1.2 kg/m3 | mass density (343.14 K, 18549 kPa): 970.7 ± 1.2 kg/m3 | mass density (343.14 K, 18578 kPa): 970.7 ± 1.2 kg/m3 | mass density (343.14 K, 18602 kPa): 970.7 ± 1.2 kg/m3 | mass density (343.14 K, 18626 kPa): 970.7 ± 1.2 kg/m3 | mass density (343.14 K, 18893 kPa): 970.8 ± 1.2 kg/m3 | mass density (343.14 K, 20126 kPa): 971.6 ± 1.2 kg/m3 and 971.7 ± 1.2 kg/m3 | mass density (343.14 K, 20127 kPa): 971.7 ± 1.2 kg/m3 | mass density (343.14 K, 20128 kPa): 971.7 ± 1.2 kg/m3 | mass density (343.14 K, 25755 kPa): 975.4 ± 1.2 kg/m3 | mass density (343.14 K, 25795 kPa): 975.4 ± 1.2 kg/m3 | mass density (343.14 K, 25825 kPa): 975.4 ± 1.2 kg/m3 | mass density (343.14 K, 25856 kPa): 975.4 ± 1.2 kg/m3 | mass density (343.14 K, 25888 kPa): 975.5 ± 1.2 kg/m3 | mass density (343.14 K, 25925 kPa): 975.6 ± 1.2 kg/m3 | mass density (343.14 K, 25957 kPa): 975.5 ± 1.2 kg/m3 | mass density (343.14 K, 25988 kPa): 975.6 ± 1.2 kg/m3 | mass density (343.14 K, 26018 kPa): 975.6 ± 1.2 kg/m3 | mass density (343.14 K, 26052 kPa): 975.6 ± 1.2 kg/m3 | mass density (343.15 K, 203.3 kPa): 957.3 ± 1.2 kg/m3 | mass density (343.15 K, 203.6 kPa): 957.2 ± 1.2 kg/m3 and 957.3 ± 1.2 kg/m3 and 957.1 ± 1.2 kg/m3
